Reference: patent US20070066608A1, “Novel indole derivatives with an improved antipsychotic activity” (priority 2003, published 2007)

These compounds were tested against T1, Human Dopamine D3 receptor (Homo sapiens, UniProt P35462) (assay: Radioligand binding experiment for dopamine D3 receptor (hD3), [125I]Iodosulpride). Conditions: membranes of D3 receptor-transfected CHO cells, read-out: pIC50 D3 (converted).
T1 construct: expressed in transfected cells; host or cells: CHO cells
Description: (§1) The interaction of the compounds of Formula (I) with dopamine-receptors, h5HT-transporter and h5HT1A receptor was assessed in in vitro radioligand binding experiments. In general, a low concentration of a radioligand with a high binding affinity for a particular receptor or transporter is incubated with a sample of a tissue preparation enriched in a particular receptor or transporter or with a preparation of cells expressing cloned human receptors in a buffered medium. During the incubation, the radioligand binds to the receptor or transporter. When equilibrium of binding is reached, the receptor bound radioactivity is separated from the non-bound radioactivity, and the receptor- or transporter-bound activity is counted The interaction of the test compounds with the receptor is assessed in competition binding experiments. Various concentrations of the test compound are added to the incubation mixture containing the receptor- or transporter preparation and the radioligand. The test compound in proportion to its binding affinity and its concentration inhibits binding of the radioligand.
Human Dopamine D3 receptor-transfected CHO cells were collected by scraping into ice-cold Tris-HCl buffer (50 mM, pH 7.4). The suspension was centrifuged (23 500×g, 10 min, 4° C.) and pellets stored at −70° C. until required. They were then thawed and briefly homogenised using an Ultra-Turrax T25 homogeniser prior to dilution to an appropriate protein concentration optimised for specific and non-specific binding. [^125]Iodosulpride (Amersham, specific activity 2000 Ci/mmol) was diluted in Tris-HCl assay buffer containing NaCl, CaCl2, MgCl2, KCl and BSA (50, 120, 2, 1, 5 mM, 0.1% respectively, adjusted to pH 7.7 with HCl) at a concentration of 2 nmol/L. Prepared radioligand (20 μl) was incubated (60 min, RT) and with 20 μl of either the 10% DMSO control, Risperidone (10^−6 mol/L final concentration), or compound of interest, then with membrane preparations (80 μl). Overnight incubation followed after addition of WGA-coated PVT SPA beads (250 μl; Amersham) and membrane-bound counts measured in a Wallac Microbeta. % Specific bound and competition binding curves were calculated using S-Plus software (Insightful).

T1 sequence (P35462 whole entry): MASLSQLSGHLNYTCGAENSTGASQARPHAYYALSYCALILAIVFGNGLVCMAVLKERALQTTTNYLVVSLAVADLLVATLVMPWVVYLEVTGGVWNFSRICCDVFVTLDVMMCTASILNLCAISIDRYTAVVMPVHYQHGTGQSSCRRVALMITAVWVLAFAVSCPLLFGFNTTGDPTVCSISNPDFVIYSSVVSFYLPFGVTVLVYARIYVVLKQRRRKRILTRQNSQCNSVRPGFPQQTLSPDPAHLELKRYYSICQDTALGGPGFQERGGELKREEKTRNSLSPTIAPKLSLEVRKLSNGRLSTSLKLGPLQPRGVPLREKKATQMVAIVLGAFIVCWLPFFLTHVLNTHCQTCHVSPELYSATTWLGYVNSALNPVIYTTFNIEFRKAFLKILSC

Going from `CN1CC(CN2CC=C(c3c[nH]c4ccc(F)cc34)CC2)Oc2ncccc21` (stereo not shown) [Compound 1] to `Fc1ccc2[nH]cc(C3=CCN(CC4COc5cccnc5O4)CC3)c2c1` (stereo not shown) [I, reference compound], the IC50 rises from 0.0794 µM to 0.501 µM (6.3-fold).

Going from `CN1CC(CN2CCC(c3c[nH]c4ccc(F)cc34)CC2)Oc2ncccc21` (stereo not shown) [Compound 2] to `Fc1ccc2[nH]cc(C3CCN(CC4COc5ccncc5O4)CC3)c2c1` (stereo not shown) [Compound 5], the IC50 falls from 0.1 µM to 0.00631 µM (16-fold).

`CN1CC(CNCCCc2c[nH]c3ccc(F)cc23)Oc2ncccc21` (stereo not shown) [Compound 3] and `Fc1ccc2[nH]cc(CCCNCC3COc4cccnc4O3)c2c1` (stereo not shown) [Compound 11] are the same in IC50: 0.398 µM for the first, 0.398 µM for the second.

First: Fc1ccc2[nH]cc(CCCNCC3COc4ccncc4O3)c2c1 (stereo not shown) [Compound 6]
Second: Fc1ccc2[nH]cc(CCCNCC3Oc4cccnc4O3)c2c1 (stereo not shown) [Compound 9]
The IC50 of the first is 7.9-fold lower: 0.0316 µM for the first, 0.251 µM for the second.

In the case of `Fc1cccc2[nH]cc(C3=CCN(CC4COc5ccncc5O4)CC3)c12` (stereo not shown) [Compound 12], the IC50 is reported as 0.158 µM.

What follows are compounds tested against T2, Human 5HT1A receptor (Homo sapiens, UniProt P08908) (assay: Binding experiment for 5-HT1A receptor, [3H]8OHDPAT). Conditions: membranes of 5HT1A receptor-transfected L929 cells, read-out: pIC50 5HT1A (converted).
T2 construct: expressed in transfected cells; host or cells: L929 cells (stably transfected)
T2 sequence (P08908 1-422): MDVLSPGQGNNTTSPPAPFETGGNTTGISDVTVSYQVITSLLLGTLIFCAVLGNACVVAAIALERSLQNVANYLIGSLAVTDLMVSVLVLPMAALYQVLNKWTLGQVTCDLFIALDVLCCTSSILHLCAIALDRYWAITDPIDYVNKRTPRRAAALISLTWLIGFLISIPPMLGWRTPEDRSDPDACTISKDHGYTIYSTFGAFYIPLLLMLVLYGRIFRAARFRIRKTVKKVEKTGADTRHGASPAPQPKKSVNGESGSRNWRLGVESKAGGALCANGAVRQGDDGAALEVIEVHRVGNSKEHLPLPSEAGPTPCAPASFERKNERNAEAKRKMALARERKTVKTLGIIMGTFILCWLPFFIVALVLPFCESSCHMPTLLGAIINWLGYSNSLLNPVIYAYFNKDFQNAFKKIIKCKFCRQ
Description: as §1
Human 5HT1A receptor-transfected L929 cells were collected by scraping into ice-cold Tris-HCl buffer (50 mM, pH 7.4). The suspension was centrifuged (23 500×g, 10 min, 4° C.) and pellets stored at −70° C. until required. They were then thawed and briefly homogenised using an Ultra-Turrax T25 homogeniser prior to dilution to an appropriate protein concentration optimised for specific and non-specific binding. [^3H]8OHDPAT (NEN, specific activity 127 Ci/mmol) was diluted in Tris-HCl assay buffer containing CaCl2 (50 mM and 4 mM, respectively; pH 7.7) at a concentration of 5 nmol/L. Prepared radioligand (50 μl) was then incubated (30 min, 37° C.) with membrane preparations from L929 cells stably-transfected with the h5HT1A gene construct (400 μl) and with 50 μl of either the 10% DMSO control, spiroxatrine (10^−6 mol/L final concentration), or compound of interest. Membrane-bound activity was detected by filtration through a Packard Filtermate harvester onto Unifaltemplates, washing with ice-cold Tris-HCI buffer (3×4 ml), followed by drying. Scintillation fluid was added and membranes were counted in a Topcount scintillation counter. % Specific bound and competition binding curves were calculated using S-Plus software (Insightful).

Compared with `O=[N+]([O-])c1ccc2[nH]cc(C3=CCN(CC4COc5ccncc5O4)CC3)c2c1` (racemic) [Compound 14], `Fc1ccc2[nH]cc(C3=CCN(CC4COc5cccnc5O4)CC3)c2c1` (stereo not shown) [I, reference compound] is 1.6-fold lower in IC50: 0.2 µM for the first, 0.126 µM for the second.

`N#Cc1ccc2[nH]cc(C3CCN(CC4COc5ccncc5O4)CC3)c2c1` (single isomer, unassigned) [Compound 21] and `Fc1ccc2[nH]cc(C3CCN(CC4COc5ccncc5O4)CC3)c2c1` (stereo not shown) [Compound 5] are within 1.5-fold of each other in IC50: 0.0316 µM for the first, 0.0398 µM for the second.

`CN1CC(CN2CC=C(c3c[nH]c4ccc(F)cc34)CC2)Oc2ncccc21` (stereo not shown) [Compound 1] and `CN1CC(CN2CCC(c3c[nH]c4ccc(F)cc34)CC2)Oc2ncccc21` (stereo not shown) [Compound 2] are within 1.5-fold of each other in IC50: 0.0126 µM for the first, 0.0158 µM for the second.

Compared with `CN1CC(CNCCCc2c[nH]c3ccc(F)cc23)Oc2ncccc21` (stereo not shown) [Compound 3], `Fc1ccc2[nH]cc(CCCNCC3COc4cccnc4O3)c2c1` (stereo not shown) [Compound 11] is 2.5-fold lower in IC50: 0.00316 µM for the first, 0.00126 µM for the second.

First: Fc1ccc2[nH]cc(CCCNCC3COc4ccncc4O3)c2c1 (stereo not shown) [Compound 6]
Second: Fc1ccc2[nH]cc(CCCNCC3Oc4cccnc4O3)c2c1 (stereo not shown) [Compound 9]
The IC50 of the first is 5-fold lower: 0.00631 µM for the first, 0.0316 µM for the second.

These compounds were tested against T3, human 5HT transporter (Homo sapiens, UniProt P31645) (assay: Binding experiment for 5-HT transporter, [3H]Paroxetine). Conditions: 5HT transporter-transfected HEK cells, [3H]Paroxetine binding; read-out: pIC50 5HT reuptake inhibition (converted).
T3 construct: host or cells: HEK cells
T3 sequence (P31645 whole entry): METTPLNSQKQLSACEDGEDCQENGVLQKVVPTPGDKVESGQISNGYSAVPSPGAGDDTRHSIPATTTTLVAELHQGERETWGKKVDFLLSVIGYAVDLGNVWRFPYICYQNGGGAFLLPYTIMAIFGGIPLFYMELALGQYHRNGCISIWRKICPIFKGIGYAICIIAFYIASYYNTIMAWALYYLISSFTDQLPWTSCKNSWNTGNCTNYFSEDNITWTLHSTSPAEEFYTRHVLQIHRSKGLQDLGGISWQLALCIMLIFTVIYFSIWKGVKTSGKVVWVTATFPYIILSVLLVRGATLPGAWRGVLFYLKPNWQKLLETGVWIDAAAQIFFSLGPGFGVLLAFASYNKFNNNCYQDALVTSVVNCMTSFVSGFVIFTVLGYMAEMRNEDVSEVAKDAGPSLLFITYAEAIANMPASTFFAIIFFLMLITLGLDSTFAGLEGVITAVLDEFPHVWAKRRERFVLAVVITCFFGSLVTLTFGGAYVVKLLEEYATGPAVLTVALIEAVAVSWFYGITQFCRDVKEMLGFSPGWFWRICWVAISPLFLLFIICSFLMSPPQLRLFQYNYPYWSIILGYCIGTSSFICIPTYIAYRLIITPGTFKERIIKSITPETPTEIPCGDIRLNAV
Description: as §1
Frozen human 5HT transporter-transfected HEK cells (Perkin Elmer, Brussels) were thawed and briefly homogenised using an Ultra-Turrax T25 homogeniser prior to dilution to an appropriate protein concentration optimised for specific and non-specific binding. [^3H]Paroxetine (NEN, specific activity 20 Ci/mmol) was diluted in Tris-HCl assay buffer containing NaCl and KCl (50 mM 120 mM and 5 mM, respectively; pH 7.4) at a concentration of 5 nmol/L. Prepared radioligand (25 μl) was then incubated (60 min, 25° C.) with membrane preparations (200 μl) and with 25 μl of either 10% DMSO control, Imipramine (10^−6 mol/L final concentration), or compound of interest Membrane-bound activity was detected by filtration through a Packard Filtermate harvester onto Unifilterplates pre-soaked in 0.1% PEI, washing with ice-cold assay buffer (3×4 ml). Filters were dried prior to addition of scintillation fluid and then counting in a Topcount scintillation counter. % Specific bound and competition binding curves were calculated using S-Plus software (Insightful).

`O=[N+]([O-])c1ccc2[nH]cc(C3=CCN(CC4COc5ccncc5O4)CC3)c2c1` (racemic) [Compound 14] and `Fc1cccc2[nH]cc(C3=CCN(CC4COc5ccncc5O4)CC3)c12` (stereo not shown) [Compound 12] are the same in IC50: 0.1 µM for the first, 0.1 µM for the second.

Compared with `N#Cc1ccc2[nH]cc(C3CCN(CC4COc5ccncc5O4)CC3)c2c1` (single isomer, unassigned) [Compound 21], `Fc1ccc2[nH]cc(C3CCN(CC4COc5ccncc5O4)CC3)c2c1` (stereo not shown) [Compound 5] is 6.3-fold higher in IC50: 0.02 µM for the first, 0.126 µM for the second.

Going from `CN1CC(CN2CC=C(c3c[nH]c4ccc(F)cc34)CC2)Oc2ncccc21` (stereo not shown) [Compound 1] to `Fc1ccc2[nH]cc(C3=CCN(CC4COc5cccnc5O4)CC3)c2c1` (stereo not shown) [I, reference compound], the IC50 rises from 0.0158 µM to 0.2 µM (13-fold).

Compared with `CN1CC(CN2CCC(c3c[nH]c4ccc(F)cc34)CC2)Oc2ncccc21` (stereo not shown) [Compound 2], `CN1CC(CNCCCc2c[nH]c3ccc(F)cc23)Oc2ncccc21` (stereo not shown) [Compound 3] is 1.6-fold lower in IC50: 0.316 µM for the first, 0.2 µM for the second.

`Fc1ccc2[nH]cc(CCCNCC3COc4ccncc4O3)c2c1` (stereo not shown) [Compound 6] and `Fc1ccc2[nH]cc(CCCNCC3COc4cccnc4O3)c2c1` (stereo not shown) [Compound 11] are the same in IC50: 0.316 µM for the first, 0.316 µM for the second.

Work on `Fc1ccc2[nH]cc(CCCNCC3Oc4cccnc4O3)c2c1` (stereo not shown) [Compound 9] yielded an IC50 of 0.501 µM.

The compounds below were run against T4, Human Dopamine D2L receptor (Homo sapiens, UniProt P14416) (assay: Radioligand binding experiment for dopamine D2 receptor (hD2), [3H]Spiperone). Conditions: membranes of D2L receptor-transfected CHO cells, read-out: pIC50 D2 (converted).
T4 construct: expressed in transfected cells; host or cells: CHO cells
T4 sequence (P14416 whole entry): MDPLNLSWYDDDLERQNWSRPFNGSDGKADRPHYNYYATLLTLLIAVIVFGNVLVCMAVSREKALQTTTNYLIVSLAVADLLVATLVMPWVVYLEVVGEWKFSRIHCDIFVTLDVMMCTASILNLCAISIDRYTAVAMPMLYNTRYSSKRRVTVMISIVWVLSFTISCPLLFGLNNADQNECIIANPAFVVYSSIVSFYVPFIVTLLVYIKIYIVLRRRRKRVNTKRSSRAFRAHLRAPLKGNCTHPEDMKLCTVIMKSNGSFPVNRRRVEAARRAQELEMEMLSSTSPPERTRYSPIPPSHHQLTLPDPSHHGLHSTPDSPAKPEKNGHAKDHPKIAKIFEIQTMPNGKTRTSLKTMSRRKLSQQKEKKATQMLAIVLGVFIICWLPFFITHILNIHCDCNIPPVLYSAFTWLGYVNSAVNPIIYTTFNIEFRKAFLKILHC
Description: as §1
Human Dopamine D2L receptor-transfected CHO cells were collected by scraping into ice-cold Tris-HCl buffer ([…], pH 7.4). The suspension was centrifuged (23 500×g, 10 min, 4° C.) and pellets stored at −70° C. until require. They were then thawed and briefly homogenised using an Ultra-Turrax T25 homogeniser prior to dilution to an appropriate protein concentration optimised for specific and non-specific binding. [^3H]Spiperone (NEN, specific activity˜70 Ci/mmol) was diluted in Tris-HCl assay buffer containing NaCl, CaCl2, MgCl2, KCI (50, 120, 2, 1, and 5 mM respectively, adjusted to pH 7.7 with HCl) at a concentration of 2 nmol/L. Prepared radioligand (50 μl) was then incubated (30 min, 37° C.) with membrane preparations pre-diluted to an appropriate protein concentration (400 μl), and with 50 μl of either the 10% DMSO control, Butaclamol (10^−6 mol/L final concentration), or compound of interest. Membrane-bound activity was detected by filtration through a Packard Filtermate harvester onto Unifilterplates, washing with ice-old Tris-HCl buffer (50 mM; pH8.0; 3×4 ml). Filters were allowed to dry before adding scintillation fluid and counting in a Topcount scintillation counter. % Specific bound and competition binding curves were calculated using S-Plus software (Insightful).

Going from `O=[N+]([O-])c1ccc2[nH]cc(C3=CCN(CC4COc5ccncc5O4)CC3)c2c1` (racemic) [Compound 14] to `Fc1ccc2[nH]cc(C3=CCN(CC4COc5cccnc5O4)CC3)c2c1` (stereo not shown) [I, reference compound], the IC50 rises from 0.1 µM to 0.251 µM (2.5-fold).

`N#Cc1ccc2[nH]cc(C3CCN(CC4COc5ccncc5O4)CC3)c2c1` (single isomer, unassigned) [Compound 21] and `Fc1ccc2[nH]cc(C3CCN(CC4COc5ccncc5O4)CC3)c2c1` (stereo not shown) [Compound 5] are the same in IC50: 0.0794 µM for the first, 0.0794 µM for the second.

Going from `CN1CC(CN2CC=C(c3c[nH]c4ccc(F)cc34)CC2)Oc2ncccc21` (stereo not shown) [Compound 1] to `CN1CC(CN2CCC(c3c[nH]c4ccc(F)cc34)CC2)Oc2ncccc21` (stereo not shown) [Compound 2], the IC50 rises from 0.2 µM to 0.398 µM (2-fold).

Going from `CN1CC(CNCCCc2c[nH]c3ccc(F)cc23)Oc2ncccc21` (stereo not shown) [Compound 3] to `Fc1ccc2[nH]cc(CCCNCC3COc4cccnc4O3)c2c1` (stereo not shown) [Compound 11], the IC50 falls from greater than 1 µM to 0.158 µM.

Going from `Fc1ccc2[nH]cc(CCCNCC3COc4ccncc4O3)c2c1` (stereo not shown) [Compound 6] to `Fc1ccc2[nH]cc(CCCNCC3Oc4cccnc4O3)c2c1` (stereo not shown) [Compound 9], the IC50 rises from 0.2 µM to greater than 1 µM.
